Assays:
human GHSR1a [1] = target: T1, human GHSR1a (Homo sapiens, UniProt Q92847); assay: NanoBiT-based homogenous binding assay; settings: ghrelin-SmBiT and LEAP2-SmBiT tracers
human GHSR1a [2] = target: T1, human GHSR1a; assay: Receptor activation assay, CRE-controlled NanoLuc reporter; assay type: cell-based

T1 sequence (Q92847 whole entry): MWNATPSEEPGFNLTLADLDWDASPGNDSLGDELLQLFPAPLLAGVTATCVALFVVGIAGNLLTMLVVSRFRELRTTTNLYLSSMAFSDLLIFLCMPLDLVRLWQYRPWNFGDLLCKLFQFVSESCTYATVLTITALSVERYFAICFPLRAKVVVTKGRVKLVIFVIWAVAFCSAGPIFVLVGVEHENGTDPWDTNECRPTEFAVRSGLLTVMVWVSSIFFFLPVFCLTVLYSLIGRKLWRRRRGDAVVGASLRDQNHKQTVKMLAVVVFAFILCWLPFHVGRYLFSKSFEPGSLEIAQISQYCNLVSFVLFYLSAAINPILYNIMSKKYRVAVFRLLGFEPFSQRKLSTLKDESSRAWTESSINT

CCCCCSC[C@H](NC(=O)[C@H](CO)NC(=O)CN)C(=O)N[C@@H](Cc1ccccc1)C(=O)N[C@@H](CC(C)C)C(=O)N[C@@H](CO)C(=O)N1CCC[C@H]1C(=O)N[C@@H](CCC(=O)O)C(=O)N[C@@H](Cc1c[nH]cn1)C(=O)N[C@@H](CCC(N)=O)C(=O)N[C@@H](CCCNC(=N)N)C(=O)N[C@H](C(=O)N[C@@H](CCC(N)=O)C(=O)N[C@@H](CCC(N)=O)C(=O)N[C@@H](CCCNC(=N)N)C(=O)N[C@@H](CCCCN)C(=O)N[C@@H](CCC(=O)O)C(=O)N[C@@H](CO)C(=O)N[C@@H](CCCCN)C(=O)N[C@@H](CCCCN)C(=O)N1CCC[C@H]1C(=O)N1CCC[C@H]1C(=O)N[C@@H](C)C(=O)N[C@@H](CCCCN)C(=O)N[C@@H](CC(C)C)C(=O)N[C@@H](CCC(N)=O)C(=O)N1CCC[C@H]1C(=O)N[C@@H](CCCNC(=N)N)C(=O)O)C(C)C [analog 1]
fold lower receptor binding activity compared to native human ghrelin (human GHSR1a [1]): ~15 fold
fold lower receptor activation potency compared to native human ghrelin (human GHSR1a [2]): ~7 fold

From doi:10.1101/2022.06.29.498187v1 (bioRxiv, 2022)
